Test results taken from paper PMC10786919, “Design-rules for stapled peptides with in vivo activity and their application to Mdm2/X antagonists” (Nature Communications, 2024).
Converted amounts (≈) assume the structure as drawn. Like-named read-outs stand apart in the source and are kept apart here. Positions of bridges follow the written chain, without caps; N, C: chain ends. Non-standard residues stand in square brackets, D forms with d. Residues, ends and D or L forms follow the SMILES beside them. Lys(N3) = [N-]=[N+]=NCCCC[C@H](N)C(=O)O; R8 = C=CCCCCCC[C@@](C)(N)C(=O)O; Cba = N[C@@H](CC1CCC1)C(=O)O; S5 = C=CCCC[C@](C)(N)C(=O)O; βAla = NCCC(=O)O

Legend:
[1] = Lactate dehydrogenase (LDH) release assay; type: cell-based
In short: (§1)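 A p53 β-lactamase reporter HCT116 line, 8000 cells per well, is exposed to test compounds at 0.5% final DMSO and scored for LDH leakage.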

HCT116 cells = assay: Lactate dehydrogenase (LDH) release assay; type: cell-based
In short: as §1

[2] = Solubility assay (kinetic solubility, PBS pH 7); type: physicochemical; conditions: pH 7, PBS; for solubility kinetic: pH 7, aqueous buffer, kinetic from dmso stock, read-out: Solubility
In short: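 Std: 10 mM stock → 100 µM in ACN/MeOH/DMSO (10:80:10). Sol. [µM] = (sample peak area / std peak area) × std conc.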

in vitro = assay: in vitro
In short: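 Azido-peptide permeability was read as loss of NanoBRET signal (donor 450 nm, acceptor 610 nm) after adding NanoBret618-azide at 10 μM final.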

[3] = Experimental LogD (partition coefficient); conditions: for logD: Partition Coeff LogD
[4] = Nanoclick permeability assay EC50
[5] = 0% FBS 4Hr, read-out: LDH: Cytotoxicity assay: EC50
[6] = 10% FBS 4Hr, read-out: LDH: Cytotoxicity assay: EC50

Compound	EC50 ([1]; LDH: Cytotoxicity assay: EC50) [µM]	LDH: Cytotoxicity assay: % Effect (HCT116 cells) [%]	EPSA (physchem) [A^2]	solubility kinetic [2] [µM]	cell entry EC50 (in vitro; [4]) [nM]	logD ([3]; not stated)	Solubility [2]	Partition Coeff LogD [3]	EC50 [1, 5] [µM]	EC50 [1, 6] [µM]	EC50 ([1]; 10% FBS 16Hr, read-out: LDH: Cytotoxicity assay: EC50) [µM]	LDH: Cytotoxicity assay: % Effect (HCT116 cells; 0% FBS 4Hr) [%]	LDH: Cytotoxicity assay: % Effect (HCT116 cells; 10% FBS 4Hr) [%]	LDH: Cytotoxicity assay: % Effect (HCT116 cells; 10% FBS 16Hr) [%]	cell entry EC50 (in vitro) [nM]	logD ([3]; experimental)
CC(=O)N[C@@H](CCCCN=[N+]=[N-])C(=O)NCCC(=O)N[C@@H](CC(C)C)C(=O)N[C@H](C)C(=O)N[C@@H](Cc1ccccc1)C(=O)N[C@]1(C)CCCCCCC=CCCC[C@@](C)(C(=O)N[C@@H](CO)C(=O)N[C@@H](C)C(=O)N[C@@H](C)C(N)=O)NC(=O)[C@H](CC2CCC2)NC(=O)[C@H](CCC(N)=O)NC(=O)[C@H](C)NC(=O)[C@H](Cc2c[nH]c3ccccc23)NC(=O)[C@H](Cc2ccc(O)cc2)NC(=O)[C@H](CCC(=O)O)NC1=O [MP-7471] (Ac-[Lys(N3)][βAla]L[dA]F[R8]EYWAQ[Cba][S5]SAA-NH2; staple 6-13)	> 50	0.465	229	93.5 (≈ 181 µg/mL)	> 10000	2.95										
CC(=O)N[C@@H](CCCCN=[N+]=[N-])C(=O)NCCC(=O)N[C@@H](CC(C)C)C(=O)N[C@H](C(=O)N[C@@H](Cc1ccccc1)C(=O)N[C@]1(C)CCCCCCC=CCCC[C@@](C)(C(=O)N[C@@H](CO)C(=O)N[C@@H](C)C(=O)N[C@@H](C)C(N)=O)NC(=O)[C@H](CC2CCC2)NC(=O)[C@H](CCC(N)=O)NC(=O)[C@H](C)NC(=O)[C@H](Cc2c[nH]c3ccccc23)NC(=O)[C@@H](CCC(=O)O)NC(=O)[C@H](C)NC1=O)[C@@H](C)O [MP-036] (Ac-[Lys(N3)][βAla]LTF[R8]A[dE]WAQ[Cba][S5]SAA-NH2; staple 6-13)	> 50.6	2.628	188		53		Poorly Behaved	Poorly Behaved								
CC(=O)N[C@@H](CCCCN=[N+]=[N-])C(=O)NCCC(=O)N[C@@H](CC(C)C)C(=O)N[C@H](C(=O)N[C@@H](Cc1ccccc1)C(=O)N[C@]1(C)CCCCCCC=CCCC[C@@](C)(C(=O)N[C@@H](CO)C(=O)N[C@@H](C)C(=O)N[C@@H](C)C(N)=O)NC(=O)[C@H](CC2CCC2)NC(=O)[C@H](CCC(N)=O)NC(=O)[C@H](C)NC(=O)[C@H](Cc2c[nH]c3cc(F)ccc23)NC(=O)[C@H](Cc2ccc(O)cc2)NC(=O)[C@H](CCC(=O)O)NC1=O)[C@@H](C)O [MP-004]	23.9	10.1	201	110 (≈ 219 µg/mL)	7440	2.9										
CC(=O)N[C@@H](CCCCN=[N+]=[N-])C(=O)NCCC(=O)N[C@@H](C)C(=O)N[C@H](C(=O)N[C@@H](Cc1ccccc1)C(=O)N[C@]1(C)CCCCCCC=CCCC[C@@](C)(C(=O)N[C@@H](C)C(=O)N[C@@H](C)C(=O)N[C@@H](C)C(N)=O)NC(=O)[C@H](CC2CCC2)NC(=O)[C@H](C)NC(=O)[C@H](C)NC(=O)[C@H](Cc2c[nH]c3ccccc23)NC(=O)[C@H](Cc2ccc(O)cc2)NC(=O)[C@H](C)NC1=O)[C@@H](C)O [MP-350, Azide-ATSP-7041 (L1A, E5A, Q9A, S12A)] (Ac-[Lys(N3)][βAla]ATF[R8]AYWAA[Cba][S5]AAA-NH2; staple 6-13)			196	2 (≈ 3.59 µg/mL)		3.37			> 50.7	> 50	> 50.7	-5.38	108.5	-2.204	695	3.37
CC(=O)N[C@@H](CCCCN=[N+]=[N-])C(=O)NCCC(=O)N[C@@H](CC(C)C)C(=O)N[C@H](C(=O)N[C@@H](Cc1ccccc1)C(=O)N[C@]1(C)CCCCCCC=CCCC[C@@](C)(C(N)=O)NC(=O)[C@H](CC2CCC2)NC(=O)[C@H](CCC(N)=O)NC(=O)[C@H](C)NC(=O)[C@H](Cc2c[nH]c3ccccc23)NC(=O)[C@H](Cc2ccc(O)cc2)NC(=O)[C@H](CCC(=O)O)NC1=O)[C@@H](C)O [MP-326] (Ac-[Lys(N3)][βAla]LTF[R8]EYWAQ[Cba][S5]-NH2; staple 6-13)	24.8	7.44	222	3 (≈ 5.22 µg/mL)	215	2.88										
CC(=O)N[C@@H](CCCCN=[N+]=[N-])C(=O)NCCC(=O)N[C@@H](CC(C)C)C(=O)N[C@H](C(=O)N[C@@H](Cc1ccccc1)C(=O)N[C@]1(C)CCCCCCC=CCCC[C@@](C)(C(=O)N[C@@H](CO)C(=O)N[C@@H](C)C(=O)N[C@@H](C)C(N)=O)NC(=O)[C@H](CC2CCC2)NC(=O)[C@H](CCC(N)=O)NC(=O)[C@H](CC(C)C)NC(=O)[C@H](Cc2c[nH]c3ccccc23)NC(=O)[C@H](Cc2ccc(O)cc2)NC(=O)[C@H](CC(C)C)NC1=O)[C@@H](C)O [MP-693, AZIDE-ATSP-7041 (E5L, A8L)] (Ac-[Lys(N3)][βAla]LTF[R8]LYWLQ[Cba][S5]SAA-NH2; staple 6-13)			196	< 1		4.68			> 50.6	> 50		-2.781	12.6		290	2.92
